# Results published in the supplement of paper PMC10307832.
# Assays:
# Assay in all cases: relative viability (nuclei count vs DMSO), 5 days (fraction); higher = more cells survive
# 201T = system: 201T
# Method in brief: (§1)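 After 5 days of treatment, lung cancer cells in 1536-well plates were fixed and stained in a single step (final 0.05% Triton X-100, 1% formaldehyde, 1 ug/ml Hoechst) and their nuclei counted on 4× images. Treatment had been applied by pin tool the day after seeding as one drug alone or as a fixed anchor-drug dose with five library-drug doses (not always all listed) in √10 steps. Relative viability is the nuclei count of treated wells divided by that of vehicle wells, and values are medians of duplicate plates.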
# BEN = system: BEN
# Method in brief: as §1
# CAL-12T = system: CAL-12T
# Method in brief: as §1
# HCC-827 = system: HCC-827
# Method in brief: as §1
# LCLC-103H = system: LCLC-103H
# Method in brief: as §1
# LCLC-97TM1 = system: LCLC-97TM1
# Method in brief: as §1
# LXF-289 = system: LXF-289
# Method in brief: as §1
# NCI-H1395 = system: NCI-H1395
# Method in brief: as §1
# NCI-H1437 = system: NCI-H1437
# Method in brief: as §1
# NCI-H1792 = system: NCI-H1792
# Method in brief: as §1
# NCI-H1793 = system: NCI-H1793
# Method in brief: as §1
# NCI-H1944 = system: NCI-H1944
# Method in brief: as §1
# NCI-H2087 = system: NCI-H2087
# Method in brief: as §1
# NCI-H2228 = system: NCI-H2228
# Method in brief: as §1
# NCI-H2405 = system: NCI-H2405
# Method in brief: as §1
# NCI-H3122 = system: NCI-H3122
# Method in brief: as §1
# NCI-H322M = system: NCI-H322M
# Method in brief: as §1
# NCI-H647 = system: NCI-H647
# Method in brief: as §1
# NCI-H727 = system: NCI-H727
# Method in brief: as §1
# RERF-LC-KJ = system: RERF-LC-KJ
# Method in brief: as §1
# SK-LU-1 = system: SK-LU-1
# Method in brief: as §1
compound,measurement,setting,value
COc1nc(C)cnc1NS(=O)(=O)c1cccnc1-c1ccc(-c2nnco2)cc1 [Zibotentan] + C[C@]1(O)C[C@@H](c2nc(-c3ccc4ccc(-c5ccccc5)nc4c3)c3c(N)nccn32)C1 [Linsitinib] (partner 1 µM),relative viability,201T; first compound 0.08 µM,1
same,relative viability,201T; first compound 0.253 µM,1.02
same,relative viability,201T; first compound 0.8 µM,1.01
same,relative viability,201T; first compound 2.53 µM,1.13
same,relative viability,BEN; first compound 0.08 µM,1.04
same,relative viability,BEN; first compound 0.253 µM,0.773
same,relative viability,BEN; first compound 0.8 µM,0.958
same,relative viability,BEN; first compound 2.53 µM,0.886
same,relative viability,CAL-12T; first compound 0.08 µM,0.903
same,relative viability,CAL-12T; first compound 0.253 µM,0.876
same,relative viability,CAL-12T; first compound 0.8 µM,0.889
same,relative viability,CAL-12T; first compound 2.53 µM,0.634
same,relative viability,HCC-827; first compound 0.08 µM,0.994
same,relative viability,HCC-827; first compound 0.253 µM,0.993
same,relative viability,HCC-827; first compound 0.8 µM,0.98
same,relative viability,HCC-827; first compound 2.53 µM,0.988
same,relative viability,LCLC-103H; first compound 0.08 µM,1.09
same,relative viability,LCLC-103H; first compound 0.253 µM,0.951
same,relative viability,LCLC-103H; first compound 0.8 µM,1.06
same,relative viability,LCLC-103H; first compound 2.53 µM,1.2
same,relative viability,LCLC-97TM1; first compound 0.08 µM,0.152
same,relative viability,LCLC-97TM1; first compound 0.253 µM,0.171
same,relative viability,LCLC-97TM1; first compound 0.8 µM,0.175
same,relative viability,LCLC-97TM1; first compound 2.53 µM,0.215
same,relative viability,LXF-289; first compound 0.08 µM,1.01
same,relative viability,LXF-289; first compound 0.253 µM,0.998
same,relative viability,LXF-289; first compound 0.8 µM,0.969
same,relative viability,LXF-289; first compound 2.53 µM,1.01
same,relative viability,NCI-H1395; first compound 0.08 µM,1.39
same,relative viability,NCI-H1395; first compound 0.253 µM,1.07
same,relative viability,NCI-H1395; first compound 0.8 µM,1.05
same,relative viability,NCI-H1395; first compound 2.53 µM,1.08
same,relative viability,NCI-H1437; first compound 0.08 µM,1.21
same,relative viability,NCI-H1437; first compound 0.253 µM,1
same,relative viability,NCI-H1437; first compound 0.8 µM,0.939
same,relative viability,NCI-H1437; first compound 2.53 µM,1.07
same,relative viability,NCI-H1792; first compound 0.08 µM,0.426
same,relative viability,NCI-H1792; first compound 0.253 µM,0.448
same,relative viability,NCI-H1792; first compound 0.8 µM,0.396
same,relative viability,NCI-H1792; first compound 2.53 µM,0.556
same,relative viability,NCI-H1793; first compound 0.08 µM,0.811
same,relative viability,NCI-H1793; first compound 0.253 µM,0.824
same,relative viability,NCI-H1793; first compound 0.8 µM,1.05
same,relative viability,NCI-H1793; first compound 2.53 µM,1.01
same,relative viability,NCI-H1944; first compound 0.08 µM,1.19
same,relative viability,NCI-H1944; first compound 0.253 µM,1.12
same,relative viability,NCI-H1944; first compound 0.8 µM,1.1
same,relative viability,NCI-H1944; first compound 2.53 µM,1.15
same,relative viability,NCI-H2087; first compound 0.08 µM,1.2
same,relative viability,NCI-H2087; first compound 0.253 µM,0.971
same,relative viability,NCI-H2087; first compound 0.8 µM,1.07
same,relative viability,NCI-H2087; first compound 2.53 µM,0.914
same,relative viability,NCI-H2228; first compound 0.08 µM,0.722
same,relative viability,NCI-H2228; first compound 0.253 µM,0.467
same,relative viability,NCI-H2228; first compound 0.8 µM,0.903
same,relative viability,NCI-H2228; first compound 2.53 µM,0.728
same,relative viability,NCI-H2405; first compound 0.08 µM,1.07
same,relative viability,NCI-H2405; first compound 0.253 µM,0.796
same,relative viability,NCI-H2405; first compound 0.8 µM,0.908
same,relative viability,NCI-H2405; first compound 2.53 µM,0.959
same,relative viability,NCI-H3122; first compound 0.08 µM,0.983
same,relative viability,NCI-H3122; first compound 0.253 µM,0.972
same,relative viability,NCI-H3122; first compound 0.8 µM,1
same,relative viability,NCI-H3122; first compound 2.53 µM,0.963
same,relative viability,NCI-H322M; first compound 0.08 µM,0.912
same,relative viability,NCI-H322M; first compound 0.253 µM,0.898
same,relative viability,NCI-H322M; first compound 0.8 µM,0.933
same,relative viability,NCI-H322M; first compound 2.53 µM,0.843
same,relative viability,NCI-H647; first compound 0.08 µM,1.12
same,relative viability,NCI-H647; first compound 0.253 µM,1.14
same,relative viability,NCI-H647; first compound 0.8 µM,1.11
same,relative viability,NCI-H647; first compound 2.53 µM,1.15
same,relative viability,NCI-H727; first compound 0.08 µM,0.208
same,relative viability,NCI-H727; first compound 0.253 µM,0.322
same,relative viability,NCI-H727; first compound 0.8 µM,0.248
same,relative viability,NCI-H727; first compound 2.53 µM,0.314
same,relative viability,RERF-LC-KJ; first compound 0.08 µM,0.885
same,relative viability,RERF-LC-KJ; first compound 0.253 µM,0.859
same,relative viability,RERF-LC-KJ; first compound 0.8 µM,0.803
same,relative viability,RERF-LC-KJ; first compound 2.53 µM,0.892
same,relative viability,SK-LU-1; first compound 0.08 µM,0.833
same,relative viability,SK-LU-1; first compound 0.253 µM,0.888
same,relative viability,SK-LU-1; first compound 0.8 µM,1.15
same,relative viability,SK-LU-1; first compound 2.53 µM,1.22
COc1nc(C)cnc1NS(=O)(=O)c1cccnc1-c1ccc(-c2nnco2)cc1 [Zibotentan] + NC(=O)Nc1cc(-c2cccc(F)c2)sc1C(=O)N[C@H]1CCCNC1 [AZD7762] (partner 0.2 µM),relative viability,201T; first compound 0.08 µM,0.644
same,relative viability,201T; first compound 0.253 µM,0.604
same,relative viability,201T; first compound 0.8 µM,0.624
same,relative viability,201T; first compound 2.53 µM,0.569
same,relative viability,BEN; first compound 0.08 µM,0.7
same,relative viability,BEN; first compound 0.253 µM,0.588
same,relative viability,BEN; first compound 0.8 µM,0.682
same,relative viability,BEN; first compound 2.53 µM,0.677
same,relative viability,CAL-12T; first compound 0.08 µM,0.604
same,relative viability,CAL-12T; first compound 0.253 µM,0.498
same,relative viability,CAL-12T; first compound 0.8 µM,0.526
same,relative viability,CAL-12T; first compound 2.53 µM,0.666
same,relative viability,HCC-827; first compound 0.08 µM,0.215
same,relative viability,HCC-827; first compound 0.253 µM,0.183
same,relative viability,HCC-827; first compound 0.8 µM,0.183
same,relative viability,HCC-827; first compound 2.53 µM,0.223
same,relative viability,LCLC-103H; first compound 0.08 µM,0.77
same,relative viability,LCLC-103H; first compound 0.253 µM,0.786
same,relative viability,LCLC-103H; first compound 0.8 µM,0.778
same,relative viability,LCLC-103H; first compound 2.53 µM,0.752
same,relative viability,LCLC-97TM1; first compound 0.08 µM,0.433
same,relative viability,LCLC-97TM1; first compound 0.253 µM,0.165
same,relative viability,LCLC-97TM1; first compound 0.8 µM,0.12
same,relative viability,LCLC-97TM1; first compound 2.53 µM,0.253
same,relative viability,LXF-289; first compound 0.08 µM,1.07
same,relative viability,LXF-289; first compound 0.253 µM,1.05
same,relative viability,LXF-289; first compound 0.8 µM,1.06
same,relative viability,LXF-289; first compound 2.53 µM,1.08
same,relative viability,NCI-H1395; first compound 0.08 µM,0.417
same,relative viability,NCI-H1395; first compound 0.253 µM,0.349
same,relative viability,NCI-H1395; first compound 0.8 µM,0.401
same,relative viability,NCI-H1395; first compound 2.53 µM,0.441
same,relative viability,NCI-H1437; first compound 0.08 µM,1.14
same,relative viability,NCI-H1437; first compound 0.253 µM,0.897
same,relative viability,NCI-H1437; first compound 0.8 µM,1.05
same,relative viability,NCI-H1437; first compound 2.53 µM,1.15
same,relative viability,NCI-H1792; first compound 0.08 µM,0.899
same,relative viability,NCI-H1792; first compound 0.253 µM,0.604
same,relative viability,NCI-H1792; first compound 0.8 µM,0.373
same,relative viability,NCI-H1792; first compound 2.53 µM,0.822
same,relative viability,NCI-H1793; first compound 0.08 µM,0.658
same,relative viability,NCI-H1793; first compound 0.253 µM,0.341
same,relative viability,NCI-H1793; first compound 0.8 µM,0.37
same,relative viability,NCI-H1793; first compound 2.53 µM,0.495
same,relative viability,NCI-H1944; first compound 0.08 µM,0.561
same,relative viability,NCI-H1944; first compound 0.253 µM,0.487
same,relative viability,NCI-H1944; first compound 0.8 µM,0.249
same,relative viability,NCI-H1944; first compound 2.53 µM,0.548
same,relative viability,NCI-H2087; first compound 0.08 µM,1.28
same,relative viability,NCI-H2087; first compound 0.253 µM,1.22
same,relative viability,NCI-H2087; first compound 0.8 µM,1.29
same,relative viability,NCI-H2087; first compound 2.53 µM,1.29
same,relative viability,NCI-H2405; first compound 0.08 µM,0.766
same,relative viability,NCI-H2405; first compound 0.253 µM,0.701
same,relative viability,NCI-H2405; first compound 0.8 µM,0.654
same,relative viability,NCI-H2405; first compound 2.53 µM,0.846
same,relative viability,NCI-H3122; first compound 0.08 µM,1.01
same,relative viability,NCI-H3122; first compound 0.253 µM,0.999
same,relative viability,NCI-H3122; first compound 0.8 µM,0.915
same,relative viability,NCI-H3122; first compound 2.53 µM,0.966
same,relative viability,NCI-H322M; first compound 0.08 µM,0.605
same,relative viability,NCI-H322M; first compound 0.253 µM,0.551
same,relative viability,NCI-H322M; first compound 0.8 µM,0.364
same,relative viability,NCI-H322M; first compound 2.53 µM,0.605
same,relative viability,NCI-H647; first compound 0.08 µM,0.353
same,relative viability,NCI-H647; first compound 0.253 µM,0.302
same,relative viability,NCI-H647; first compound 0.8 µM,0.384
same,relative viability,NCI-H647; first compound 2.53 µM,0.676
same,relative viability,NCI-H727; first compound 0.08 µM,0.575
same,relative viability,NCI-H727; first compound 0.253 µM,0.572
same,relative viability,NCI-H727; first compound 0.8 µM,0.497
same,relative viability,NCI-H727; first compound 2.53 µM,0.296
same,relative viability,RERF-LC-KJ; first compound 0.08 µM,1.16
same,relative viability,RERF-LC-KJ; first compound 0.253 µM,0.938
same,relative viability,RERF-LC-KJ; first compound 0.8 µM,0.841
same,relative viability,RERF-LC-KJ; first compound 2.53 µM,0.909
